The values below come from US9650400B2, “Voriconazole sodium phosphate hydrates and polymorphs thereof” (SHAANXI SYNTHETIC PHARMACEUTICAL CO., LTD., priority 2013, dated 2017).

Where two headings read alike, the source gives them in different places.

Series [1] is classed as physicochemical. How it is done:
Sample injection was carried out by using a sample prepared by allowing the sample in Example 17 to absorb moisture, and the results are shown in Table 5.

The subject of series [2] is Candida albicans. Kind of series: Diffused candidiasis in guinea pigs. In kind it is in vivo. Particulars: intravenous 5 mg/kg/day. How it is done: (§1) In all experiments, particular pathogen-free guinea pigs (body weight of 400-500 g) were used. A conduit was placed in the left jugular vein of the […] infected with Aspergillus fumigatus (4,000 CFU/g body weight) or Candida albicans (4,000 CFU/g body weight) via the lateral veins of penis of the animal or via the implanted conduit. One hour after infection, the animals were subject to an intravenous therapy (5 mg/kg/day). The mean survival time (MST) and the percent survival (% sur) were recorded for each group experimental animals (the number of each group of experimental animals is listed in column “N”) within respective number of days. The amounts of […] in deep tissues (such as liver, spleen, kidney, lung, or brain) were investigated in animals which died during the experiment and in animals which survived the experiment but were later sacrificed in respective groups. “% neg” in Table 1 represents the percent of deep tissues that were culture-negative after treatment.

Series [3] has as its system Aspergillus fumigatus. Kind of series: Diffused aspergillosis in guinea pigs. In kind it is in vivo. How it is done:
as §1

Series [4] can be described thus: Hydroscopicity comparison (moisture absorption, 25° C. and 80% humidity, 24 hours). In kind it is physicochemical.
The nature of series [5]: Pharmacokinetic experiments in rabbits (intravenous, equimolar). In kind it is in vivo. Particulars: rabbit. The procedure:
Two rabbits of same body weight were intravenously administered equimolar voriconazole sodium phosphate and voriconazole, respectively, and an equal volume of blood was drawn from the rabbits at different time intervals, and a metabolism status in body was determined.

Where [6] appears, read: Aspergillus fumigatus, intravenous 5 mg/kg/day.

voriconazole sodium phosphate hydrate: in series [1] (0 hour), the “Individual impurity, by weight” value was “Individual impurity 0.06%” and the “Total impurity, by weight” value is on record as “Total impurity 0.09%”. Besides, in series [1] (24 hour moisture absorption), the “Individual impurity, by weight” value is on record as “Individual impurity 0.08%” and the “Total impurity, by weight” value was “Total impurity 0.13%”. The “change in impurity after absorbing moisture (in words)” value in series [1] (24 hours) was “minor change in impurity”. Moreover, the “MST (mean survival time)” value in series [2] (Candida albicans 4,000 CFU/g body weight) came to 9.5 days. Also, in series [2] (Candida albicans), the “% neg (percent of deep tissues culture-negative after treatment)” value worked out at 69%, the “% sur (percent survival)” value stood at 76.9% and the “g (liver): CFU/g in culture-positive liver” value turned out to be 0 mean log 10 CFU/g. Also, in series [3] (Aspergillus fumigatus 4,000 CFU/g body weight, intravenous 5 mg/kg/day), the “MST (mean survival time)” value turned out to be 6.2 days. Besides, in series [3] (setting [6]), the “% neg (percent of deep tissues culture-negative after treatment)” value is 70%, the “% sur (percent survival)” value stood at 66.4% and the “g (liver): CFU/g in culture-positive liver” value worked out at 3.5 mean log 10 CFU/g. For the same compound, the “Sample weight, 0 hour” value in series [4] is given as 0.3318 g. Besides, in series [4] (24 hours), the “Sample weight, 24 hours” value was 0.3441 g; the “Weight increase by moisture absorption, by weight” value was found to be 3.6%; the “hydroscopicity (in words)” value is reported as “mild hydroscopicity”.
For the compound voriconazole sodium phosphate, the “metabolism in body (in words)” value in series [5] (intravenous) is “can be metabolized into voriconazole in body”. Also, the “Prodrug in blood, peak area” value in series [5] (intravenous, 30 min) stood at 235.92 peak area; in series [5] (intravenous, 60 min), 143.51 peak area; in series [5] (intravenous, 120 min) it was 98.59 peak area; in series [5] (intravenous, 150 min), 2.045 peak area; in series [5] (intravenous, 200 min), 0 peak area; in series [5] (intravenous, 250 min), 0 peak area. The “parent nucleus (voriconazole) in blood, peak area” value in series [5] (intravenous, 30 min) is on record as 0.324 peak area; in series [5] (intravenous, 60 min) it was 86.42 peak area; in series [5] (intravenous, 120 min), 158.32 peak area; in series [5] (intravenous, 200 min), 130.38 peak area; in series [5] (intravenous, 250 min), 69.23 peak area. In series [3] (Aspergillus fumigatus or Candida albicans infection, conclusion from Table 7), the “potency against fungal infection (in words)” value is on record as “very potent against fungal infection”.
In the case of `C[C@@H](c1ncncc1F)[C@](O)(Cn1cncn1)c1ccc(F)cc1F` [voriconazole], the “parent nucleus (voriconazole) in blood, peak area” value in series [5] (in vivo, iv, 30 min) was 378.34 peak area; in series [5] (in vivo, iv, 60 min), 321.69 peak area; in series [5] (in vivo, iv, 120 min), 150.45 peak area; in series [5] (in vivo, iv, 150 min) it was 78.35 peak area; in series [5] (in vivo, iv, 200 min), 29.71 peak area; in series [5] (in vivo, iv, 250 min), 0.234 peak area.
Consider “Voriconazole phosphate anhydrate [reference compound]”, for which the “stability under highly humid conditions (in words)” value in series [1] is “extremely unstable”. Further, in series [1] (0 hour), the “Individual impurity, by weight” value was “Individual impurity 0.07%” and the “Total impurity, by weight” value is reported as “Total impurity 0.10%”. Also, the “Sample weight, 0 hour” value in series [4] is 0.3938 g. For the same compound, in series [4] (24 hours), the “Sample weight, 24 hours” value is 0.4627 g and the “hydroscopicity (in words)” value is “significant hydroscopicity”.
